The record followed here is patent US7501430B2 (ArQule, Inc., priority 2006, dated 2009).

Where only a bound is given, the exact number is not on record here.

As a reminder, the IC50 is the midpoint of a concentration-inhibition curve. A word on the inhibition: it is the percentage by which the read-out fell short of the control.

T1 sequence (P15056 whole entry V600E): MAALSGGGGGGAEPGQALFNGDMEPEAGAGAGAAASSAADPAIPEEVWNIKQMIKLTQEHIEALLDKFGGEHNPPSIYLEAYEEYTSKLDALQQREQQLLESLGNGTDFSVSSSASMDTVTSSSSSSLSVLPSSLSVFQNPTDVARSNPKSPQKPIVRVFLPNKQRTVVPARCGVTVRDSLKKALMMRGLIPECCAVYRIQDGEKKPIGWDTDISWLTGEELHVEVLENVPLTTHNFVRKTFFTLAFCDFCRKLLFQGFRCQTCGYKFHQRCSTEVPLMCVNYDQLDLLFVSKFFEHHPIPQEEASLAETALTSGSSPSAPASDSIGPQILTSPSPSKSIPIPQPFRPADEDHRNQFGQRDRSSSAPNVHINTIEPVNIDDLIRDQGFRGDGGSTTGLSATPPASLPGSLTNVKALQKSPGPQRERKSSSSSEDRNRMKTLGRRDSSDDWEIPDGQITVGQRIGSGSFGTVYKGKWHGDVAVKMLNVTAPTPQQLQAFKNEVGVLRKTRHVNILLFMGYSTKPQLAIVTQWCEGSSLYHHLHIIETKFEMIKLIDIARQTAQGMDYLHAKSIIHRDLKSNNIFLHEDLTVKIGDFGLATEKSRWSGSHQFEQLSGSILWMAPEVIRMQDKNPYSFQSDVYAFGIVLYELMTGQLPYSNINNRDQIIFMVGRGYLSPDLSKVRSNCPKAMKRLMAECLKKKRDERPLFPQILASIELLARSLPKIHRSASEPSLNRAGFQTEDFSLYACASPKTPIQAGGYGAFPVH

The first experiment concerns the target T1, mutant B-RAF (Homo sapiens, UniProt P15056, V600E).
T1 construct: purchased Upstate (Charlottesville, Va.)
The experiment is described as follows: RAF biochemical assay (MEK-1 phosphorylation, anti-phospho MEK1/2 detection).
Conditions: not given
The gist of the method:
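Detection is by ELISA: after a 30 min room-temperature reaction, plate-captured GST-MEK-1 is probed with anti-phospho MEK1/2, then an AP-tagged secondary antibody with fluorescent Attophos read-out.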
As to `O=S(=O)(c1ccc(C(F)(F)F)cc1)N1CCC[C@@H](Nc2nccc(-c3c(-c4ccc(F)cc4)nc4occn34)n2)C1` [Example 58, 4-[6-(4-fluorophenyl)imi-dazo[2,1-b][1,3]oxazol-5-yl]-N-((3R)-1-{[4-(trifluoro-methyl)phenyl]sulfonyl}piperidin-3-yl)pyrimidin-2-amine], inhibition was half-maximal at 403 nM (IC50).

Staying with this experiment, now noted: @ 10 uM.
With `O=S(=O)(c1cccc(C(F)(F)F)c1)N1CCC[C@@H](Nc2nccc(-c3c(-c4ccc(F)cc4)nc4occn34)n2)C1` [Example 46, 4-[6-(4-fluorophenyl)imi-dazo[2,1-b][1,3]oxazol-5-yl]-N-((3R)-1-{[3-(trifluoro-methyl)phenyl]sulfonyl}piper-idin-3-yl)pyrimidin-2-amine], the “Mutant B-RAF % inhibition” value is given as 19 @ 10 uM %.

Staying with this experiment, now noted: @ 10 uM; read-out: Mutant B-RAF % inhibition.
Regarding `CN(C)c1ccc(NC(=O)N2CCC(Nc3nccc(-c4c(-c5ccc(F)c(F)c5)nc5sccn45)n3)CC2)cc1` [Example 226, 4-({4-[6-(3,4-difluorophenyl)imidazo[2,1-b][1,3]thiazol-5-yl]pyrimidin-2-yl}amino)-N-[4-(dimethylamino)phenyl]piper-idine-1-carboxamide], the inhibition at 10 µM was determined as 61%. For the compound `FC(F)(F)c1cccc(-c2nc3occn3c2-c2ccnc(NC3CCNCC3)n2)c1` [Example 306, N-piperidin-4-yl-4-{6-[3-(trifluoromethyl)phenyl]imidazo[2,b][1,3]oxazol-5-yl}pyrimidin-2-amine], the inhibition at 10 µM came out at 32%. Take `CCOC(=O)c1ccc(-c2nc3sccn3c2-c2ccnc(N[C@@H]3CCCNC3)n2)cc1OCC` [Example 128, ethyl 2-ethoxy-4-(5-{2-[(3R)-piperidin-3-ylamino]pyrimidin-4-yl}imidazo[2,1-b][1,3]thiazol-6-yl)benzoate]: the inhibition at 10 µM amounted to 24%. The same measure, in the same setting: with `COc1ccc(Cl)cc1S(=O)(=O)N1CCC(Nc2nccc(-c3c(-c4ccc(F)cc4)nc4occn34)n2)CC1` [Example 227, N-{1-[(5-chloro-2-methoxyphenyl)sulfonyl]piper-idin-4-yl}-4-[6-(4-fluorophenyl)imidazo[2,1-b][1,3]oxazol-5-yl]pyrimidin-2-amine] the figure was 27%; with `C[C@H](NC(=O)N1CCC(Nc2nccc(-c3c(-c4ccc(F)cc4)nc4occn34)n2)CC1)c1ccccc1` [Example 195, 4-({4-[6-(4-fluorophenyl)imidazo[2,1-b][1,3]oxazol-5-yl]pyrimidin-2-yl}amino)-N-[(1S)-1-phenylethyl]piperidine-1-carboxamide], 56%.

On to `CCN1CCC(Nc2nccc(-c3c(-c4ccc(F)cc4)nc4sccn34)n2)CC1` [Example 154, N-(1-ethylpiperidin-4-yl)-4-[6-(4-fluorophenyl)imidazo[2,1-b][1,3]thiazol-5-yl]pyrimidin-2-amine], for which the inhibition at 10 µM was 36%. On the same count and under the same terms, the value for `CN(C)c1ccc(C(=O)N2CCC(Nc3nccc(-c4c(-c5ccc(F)c(F)c5)nc5sccn45)n3)CC2)cc1` [Example 221, 4-[6-(3,4-difluorophenyl)imidazo[2,1-b][1,3]thiazol-5-yl]-N-{1-[4-(dimethylamino)benzoyl]piper-idin-4-yl}pyrimidin-2-amine] was 42%. Still for that read-out and setting: with `O=C(NCc1ccco1)N1CCC[C@@H](Nc2nccc(-c3c(-c4ccc(F)cc4)nc4occn34)n2)C1` [Example 25, (3R)-3-({4-[6-(4-fluorophenyl)imidazo[2,1-b][1,3]oxazol-5-yl]pyrimidin-2-yl}amino)-N-(2-furylmethyl)piperidine-1-carboxamide] the figure was 35%. The same measure, in the same setting: with `COc1cccc(-c2nc3sccn3c2-c2ccnc(N[C@H]3CCCNC3)n2)c1` [Example 137, 4-[6-(3-methoxyphenyl)imidazo[2,1-b][1,3]thiazol-5-yl]-N-[(3S)-piperidin-3-yl]pyrimidin-2-amine] the figure was 42%.

In the case of `O=C(NCc1ccc(F)cc1)N1CCC[C@@H](Nc2nccc(-c3c(-c4ccc(F)cc4)nc4occn34)n2)C1` [Example 76, (3R)-N-(4-fluorobenzyl)-3-({4-[6-(4-fluorophenyl)imidazo[2,1-b][1,3]oxazol-5-yl]pyrimidin-2-yl}amino)piperidine-1-carboxamide], the inhibition at 10 µM amounted to 36%. The same measure, in the same setting: with `O=C(NCc1ccccc1)N1CCC(Nc2nccc(-c3c(-c4ccc(F)c(F)c4)nc4sccn34)n2)CC1` [Example 251, N-benzyl-4-({4-[6-(3,4-difluorophenyl)imidazo[2,1-b][1,3]thiazol-5-yl]pyrimidin-2-yl}amino)piperidine-1-carboxamide] the figure was 63%. Turning to `Fc1ccc(CN2CCC(Nc3nccc(-c4c(-c5ccc(F)cc5)nc5sccn45)n3)CC2)cc1` [Example 293, N-[1-(4-fluorobenzyl)piperidin-4-yl]-4-[6-(4-fluorophenyl)imidazo[2,1-b][1,3]thiazol-5-yl]pyrimidin-2-amine], the inhibition at 10 µM amounted to 14%. Regarding `Cc1ccccc1-c1nc2occn2c1-c1ccnc(NC2CCN(S(C)(=O)=O)CC2)n1` [Example 308, 4-[6-(2-methylphenyl)imidazo[2,1-b][1,3]oxazol-5-yl]-N-(1-(methylsulfonyl)piperidin-4-yl]pyrimidin-2-amine], the inhibition at 10 µM stood at 45%. As for `Cc1cn2c(-c3ccnc(NC4CCN(C(=O)Nc5ccc(N(C)C)cc5)CC4)n3)c(-c3ccc(F)cc3)nc2s1` [Example 225, N-[4-(dimethylamino)phenyl]-4-({4-[6-(4-fluorophenyl)-2-methylimidazo[2,1-b][1,3]thiazol-5-yl]pyrimidin-2-yl}amino)piperidine-1-carboxamide], the inhibition at 10 µM was determined as 38%.

The same experiment, now with this note: read-out: Mutant B-RAF IC50.
On to `COc1cccc(-c2nc3sccn3c2-c2ccnc(NC3CCN(S(=O)(=O)c4ccc(CCC(=O)O)cc4)CC3)n2)c1` [Example 270, 3-(4-{[4-({4-[6-(3-methoxyphenyl)imidazo[2,1-b][1,3]thiazol-5-yl]pyrimidin-2-yl}amino)piperidin-1-yl]sulfonyl}phenyl)propanoic acid], for which the IC50 came out at 316 nM. In the case of `COc1cccc(-c2nc3sccn3c2-c2ccnc(N[C@@H]3CCCNC3)n2)c1` [Example 77, 4-[6-(3-methoxyphenyl)imidazo[2,1-b][1,3]thiazol-5-yl]-N-[(3R)-piperidin-3-yl]pyrimidin-2-amine], the IC50 was determined as 1810 nM. Consider `Cc1cn2c(-c3ccnc(NC4CCN(S(=O)(=O)c5ccc(C(=O)O)cc5)CC4)n3)c(-c3ccc(F)cc3)nc2s1` [Example 258, 4-{[4-({4-[6-(4-fluorophenyl)-2-methylimidazo[2,1-b][1,3]thiazol-5-yl]pyrimidin-2-yl}amino)piperidin-1-yl]sulfonyl}benzoic acid], for which the IC50 is 322 nM. For `Cn1ccc(S(=O)(=O)N2CCC[C@@H](Nc3nccc(-c4c(-c5cccc(O)c5)nc5sccn45)n3)C2)n1` [Example 376, 3-{5-[2-({(3R)-1-[(1-methyl-1H-pyrazol-3-yl)sulfonyl]piperidin-3-yl}amino)pyrimidin-4-yl]imidazo[2,1-b][1,3]thiazol-6-yl}phenol], the IC50 is 1 nM. The same measure, in the same setting: the value for `Cc1ccc(NC(=O)N2CCC(Nc3nccc(-c4c(-c5ccc(F)cc5)nc5occn45)n3)CC2)cc1` [Example 172, 4-({4-[6-(4-fluorophenyl)imidazo[2,1-b][1,3]oxazol-5-yl]pyrimidin-2-yl}amino)-N-(4-methylphenyl)piperidine-1-carboxamide] was 1980 nM; that for `COc1cccc(-c2nc3sccn3c2-c2ccnc(NC3CCN(C(=O)NCc4ccco4)CC3)n2)c1` [Example 234, N-(2-furylmethyl)-4-({4-[6-(3-methoxyphenyl)imidazo[2,1-b][1,3]thiazol-5-yl]pyrimidin-2-yl}amino)piperidine-1-carboxamide] was 825 nM. On the same count and under the same terms, with `NC(=O)Oc1cccc(-c2nc3sccn3c2-c2ccnc(N[C@@H]3CCCN(S(=O)(=O)c4ccc(Cl)cc4)C3)n2)c1` [Example 364, 3-{5-[2-({(3R)-1-[(4-chlorophenyl)sulfonyl]piperidin-3-yl}amino)pyrimidin-4-yl]imidazo[2,1-b][1,3]thiazol-6-yl}phenyl carbamate] the figure was 7 nM; with `O=S(=O)(c1ccc(Cl)cc1)N1CCC[C@@H](Nc2nccc(-c3c(-c4cc(O)ccc4O)nc4sccn34)n2)C1` [Example 145, 2-{5-(2-({(3R)-1-[(4-chlorophenyl)sulfonyl]piperidin-3-yl}amino)pyrimidin-4-yl]imidazo[2,1-b][1,3]thiazol-6-yl}benzene-1,4-diol], 92 nM. Turning to `CCNC(=O)N1CCC(Nc2nccc(-c3c(-c4ccc(F)cc4)nc4sccn34)n2)CC1` [Example 294, N-ethyl-4-({4-[6-(4-fluorophenyl)imidazo[2,1-b][1,3]thiazol-5-yl]pyrimidin-2-yl}amino)piperidine-1-carboxamide], the IC50 is 41 nM. Take `O=C(c1cccc2cccnc12)N1CCC(Nc2nccc(-c3c(-c4ccc(F)cc4)nc4occn34)n2)CC1` [Example 161, 4-[6-(4-fluorophenyl)Imidazo[2,1-b][1,3]oxazol-5-yl]-N-[1-(quinolin-8-ylcarbonyl)piperidin-4-yl]pyrimidin-2-amine]: the IC50 was 1570 nM. On the same count and under the same terms, with `COc1cccc(-c2nc3sccn3c2-c2ccnc(N[C@@H]3CCCN(C(=O)CC(C)C)C3)n2)c1` [Example 109, 4-[6-(3-methoxyphenyl)imidazo[2,1-b][1,3]thiazol-5-yl]-N-[(3R)-1-(3-methylbutanoyl)piperidin-3-yl]pyrimidin-2-amine] the figure was more than 3000 nM; with `O=C(COc1ccc(Cl)cc1)N1CCC[C@@H](Nc2nccc(-c3c(-c4ccc(F)cc4)nc4occn34)n2)C1` [Example 29, N-{(3R)-1-[(4-chlorophenoxy)acetyl]piper-idin-3-yl}-4-[6-(4-fluorophenyl)imidazo[2,1-b][1,3]oxazol-5-yl]pyrimidin-2-amine], 1820 nM; with `O=C(C1CCCCC1)N1CCC[C@@H](Nc2nccc(-c3c(-c4ccc(F)cc4)nc4occn34)n2)C1` [Example 31, N-[(3R)-1-(cyclohexylcarbonyl)piperidin-3-yl]-4-[6-(4-fluorophenyl)imidazo[2,1-b][1,3]oxazol-5-yl]pyrimidin-2-amine], 2950 nM.
